Experimental findings from patent US9572858B2, “Composition for treating and preventing benign prostatic hyperplasia” (GemVax & KAEL Co., Ltd., priority 2013, dated 2017) are described below.

Structures are written as SMILES.

Assay [1] relates to BPH induced animal model (sulpiride). In words: Organ weights in sulpiride BPH induced animal model. As to conditions: rat. It counts as in vivo, Sprague-Dawley male rats.
For a further assay, the system named is 5α-reductase. In words: Expression of 5α-reductase in ventral prostate by RT-PCR, BPH induced animal model. It counts as in vivo, Sprague-Dawley male rats. As to conditions: sulpiride 40 mg/kg alone, 60 days, rat. An excerpt:
As androgen, the most commonly used hormone in the body is testosterone. But the most powerful hormone of androgens related to development of prostate is 5α-dihydrotestosterone (DHT) which is made by combining testosterone and 5α-reductase. […] It is reported that DHT made by hyperprolactinemia make more gaining weight in lateral lobe than dorsal lobe or ventral lobe of prostate. Based on this fact, the experiment using PEP1 according to example 1 only or co-administration with other test material to BPH induced animal model was done as follows. […] Also before administrating the test materials, the body weights of every animal were measured and recorded.
Sulpiride as test material was purchased from Sigma Chemical Co. (St. Louis, Mo., USA) and used for the experiment. […] The dosage of the administration was calculated based on the concentration of 0.5 ml/kg with reflecting the body weight measured every day. […]
After administrating sulpiride with test materials for 60 days and collecting ventral prostate, the effect to the expression of 5α-reductase was measured by using RT-PCR. […] After then RNA was quantified by using spectrophotometer. […] For the control of quantification in electrophoresis, GAPDH whose expression level is not changed by other drugs was used. […]

[2] abbreviates: Sulpiride 40 mg/kg 60 days + Finasteride 5 mg/kg.
Setting [3] is: Sulpiride 40 mg/kg 60 days alone (BPH induction).

As to `CC(C)(C)NC(=O)[C@H]1CC[C@H]2[C@@H]3CC[C@H]4NC(=O)C=C[C@]4(C)[C@H]3CC[C@]12C` [Finasteride, finasteride], in assay [1] (setting [2]), the Prostate index is reported as 0.157, the Weight of prostate is reported as 0.75 ± 0.06 g and the “Weight of seminal vesicle” value is recorded as 0.49 ± 0.02 g.
For `CCN1CCCC1CNC(=O)c1cc(S(N)(=O)=O)ccc1OC` (stereo not shown) [Sulpiride, sulpiride], in assay [1] (setting [3]), the Weight of prostate turned out to be 1.59 ± 0.05 g and the “Weight of seminal vesicle” value was determined as 1.23 ± 0.11 g. The compound also displayed a Prostate index in assay [1] (Sulpiride 40 mg/kg 60 days alone (BPH induction), equation Final prostate weight/body weight) of 0.303. For the same compound, in the assay on 5α-reductase, the “Level of 5α-reductase expression in ventral prostate (RT-PCR)” value is reported as “increased”.
